Source: ChEMBL document CHEMBL4414582, “Lathyrane, Premyrsinane, and Related Diterpenes from Euphorbia boetica: Effect on in Vitro Neural Progenitor Cell Proliferation” (J Nat Prod, 2019)
Calls of active or inactive are those of the source. No cut-off for these calls is given here.

Experiments:
Mus musculus [1] = species: Mus musculus; assay: Activation of PKC in mouse neurospheres derived neural precursor cells assessed as increase in cell proliferation by measuring increase in neurosphere size at 5 to 10 uM after 72 hrs in presence of EGF and bFGF by phase contrast microscopic based analysis
Mus musculus [2] = species: Mus musculus; assay: Activation of PKC in mouse neurospheres derived neural precursor cells assessed as cell proliferation by measuring neurosphere size at 1 uM after 72 hrs in presence of EGF and bFGF by phase contrast microscopic based analysis
Mus musculus [3] = species: Mus musculus; assay: Activation of PKC in mouse neurospheres derived neural precursor cells assessed as cell proliferation by measuring neurosphere size at 1 to 10 uM after 72 hrs in presence of EGF by phase contrast microscopic based analysis
[4] = Effect on self-renewal capacity in mouse neurospheres derived neural precursor cells assessed as neurosphere number at 1 to 10 uM after 72 hrs in presence of bFGF by phase contrast microscopic based analysis; type: ADME
Mus musculus [5] = species: Mus musculus; assay: Activation of PKC in mouse neurospheres derived neural precursor cells assessed as increase in cell proliferation by measuring increase in neurosphere size after 72 hrs in presence of EGF and bFGF by phase contrast microscopic based analysis
[6] = Effect on self renewal capacity in mouse neurospheres derived neural precursor cells assessed as neurosphere number at 1 to 10 uM after 72 hrs in presence of EGF and bFGF by phase contrast microscopic based analysis; type: ADME
[7] = Effect on self-renewal capacity in mouse neurospheres derived neural precursor cells assessed as neurosphere number at 1 to 10 uM after 72 hrs in presence of EGF by phase contrast microscopic based analysis; type: ADME
[8] = Effect on cell viability in mouse neurospheres derived neural precursor cells assessed as neurosphere number at 1 to 10 uM after 72 hrs in presence of bFGF and EGF by phase contrast microscopic based analysis
[9] = Effect on cell viability in mouse neurospheres derived neural precursor cells assessed as neurosphere number at 1 to 10 uM after 72 hrs in presence of bFGF by phase contrast microscopic based analysis
Mus musculus [10] = species: Mus musculus; assay: Activation of PKC in mouse neurospheres derived neural precursor cells assessed as cell proliferation by measuring neurosphere size at 1 to 10 uM after 72 hrs in presence of bFGF by phase contrast microscopic based analysis
[11] = Effect on cell viability in mouse neurospheres derived neural precursor cells assessed as neurosphere number at 1 to 10 uM after 72 hrs in presence of EGF by phase contrast microscopic based analysis
Mus musculus [12] = species: Mus musculus; assay: Activation of PKC in mouse neurospheres derived neural precursor cells assessed as increase in cell proliferation by measuring increase in neurosphere area at 5 uM after 72 hrs in presence of EGF and bFGF by phase contrast microscopic based analysis

| Structure (SMILES) | Activity (Mus musculus [1]) | Activity (Mus musculus [2]) | Activity (Mus musculus [3]) | Activity [4] | Activity (Mus musculus [5]) | Activity [6] | Activity [7] | Activity [8] | Activity [9] | Activity (Mus musculus [10]) | Activity [11] | Activity (Mus musculus [12]) |
| --- | --- | --- | --- | --- | --- | --- | --- | --- | --- | --- | --- | --- |
| CC(=O)O[C@@H]1[C@@H]2[C@@H](OC(C)=O)[C@]3(CC[C@H]4[C@@H](/C=C(\C)C(=O)[C@@]2(OC(C)=O)C[C@@H]1C)C4(C)C)CO3 | Active | inactive | inactive | Non-Toxic | Dose-dependent effect | Non-Toxic | Non-Toxic | Non-Toxic | Non-Toxic | inactive | Non-Toxic |  |
| C=C1CC[C@H]2[C@@H](/C=C(\C)C(=O)[C@@]3(OC(C)=O)C[C@H](C)[C@H](OC(C)=O)[C@@H]3[C@H]1OC(C)=O)C2(C)C |  |  |  | Non-Toxic |  | Non-Toxic | Non-Toxic | Non-Toxic | Non-Toxic |  | Non-Toxic | Active |
